Measured values as given in patent US20220339135A1, “COMPOSITIONS AND METHODS FOR MODULATING AN INFLAMMATORY RESPONSE” (Enzychem Lifesciences Corporation, priority 2019, published 2022).

How the values were obtained:
[1] = tested on: ERK, p38 MAPK, JNK in THP-1 cells; test: Gemcitabine-induced phosphorylation of ERK, p38 MAPK, JNK, western blot; type: cell-based, human; conditions: inhibitor of NADPH oxidase
Experimental: Total cells were lysed on ice for 30 minutes in RIPA buffer composed of 50 mM Tris-HCl (pH 7.4), 150 mM NaCl, 2 mM EDTA, 1% NP-40, 0.5% sodium deoxycholate, 0.1% SDS, 1 mM phenylmethylsulfonyl fluoride (PMSF), 10 mM sodium fluoride, 2 mM sodium pyrophosphate, 10 mM β-glycerophosphate, 10 mM sodium orthovanadate. Membrane-and-cytoplasmic protein fractions of cultured cells were obtained with Mem-PER Plus Membrane Protein Extraction Kit (Thermo Scientific, MA, USA) according to the manufacturer's instructions. The lysates were centrifuged at 13,000 rpm for 20 minutes at 4° C. and protein concentrations were determined using the Bradford assay (Bio-Rad Laboratories). Denatured samples were mixed with a 5×SDS-PAGE loading buffer and heated to 100° C. for 15 min. The samples were separated on the 10% of SDS-PAGE gel and transferred to polyvinylidene difluoride (PVDF) membranes (Merck Millipore Corporation, MA, USA). Membranes were blocked with 5% non-fat milk in PBS (10 mM Tris-HCl, pH7.5, 150 mM NaCl) for 1 h and probed with primary antibodies against ERK1/2, phospho-ERK1/2, P38, phospho-P38, SAPK/JNK, phospho-SAPK/JNK, Na, K-ATPase, α-Tubulin, and β-actin from Cell Signaling Technology (MA, USA), Rac1 from Merck Millipore Corporation), p47phox and phospho-p47phox from Invitrogen, adenosine receptor A1 from Abcam, β arrestin-1 from Santa Cruz Technology for overnight at 4° C. The blots were washed and incubated with appropriate secondary antibodies and visualized using Pierce ECL Western Blotting Substrate (Thermo Scientific).

[2] = tested on: LPS-induced acute lung injury; test: LPS-induced acute lung injury (ALI) in mice; type: in vivo; conditions: LPS-treated mice, co-treatment
[3] = tested on: intracellular calcium in dHL-60 cells; test: Fluo-4 calcium assay; type: cell-based, human
Experimental: Human leukemia line (HL-60) cells were differentiated (dHL-60) to neutrophil-like cells in the culture medium with the addition of 1.3% DMSO (Sigma) for 5 days in a humidified atmosphere at 37° C. without changing the medium. dHL-60 cells (2×10^5 cells/mL) were loaded with 5 μM fluo-4 AM for 45 minutes and washed three times with warmed modified (37° C.) HBSS buffer (137.93 mM NaCl, 5.33 mM KCl, 2 mM CaCl2), 1 mM MgSO4, 2.38 mM HEPES, 5.5 mM glucose, pH to 7.4). The cells were seeded on black-walled 96-well plates and then treated with vehicle (0.1% DMSO), ionomycin (5 μM; positive control) or PLAG (100 μg/mL) just before measurement. Baseline fluorescence was measured before treatment, and fluorescence was read every 20 s for 700 s using an excitation wavelength of 494 nm, an emission wavelength of 516 nm in a FlexStation 3 microplate reader (Molecular Devices). Fluorescence values were reported as F/Fo according to the calculation: [ΔF=(494 nm)f/(516 nm)f−(494 nm)0/(516 nm)0]. For studies in 0 mM external calcium, the cells were loaded as mentioned earlier. After being loaded, the cells were washed four times with calcium-free HBSS. The remainder of the study was carried out in calcium-free HBSS.
(§1) HL-60 cells were differentiated (dHL-60) to neutrophil-like cells in the culture medium with the addition of 1.3% DMSO (Sigma) for 5 days in a humidified atmosphere at 37° C. without changing the medium. dHL-60 cells (2×10^5 cells/mL) were loaded with 5 μM fluo-4 AM for 45 minutes and washed three times with warmed modified (37° C.) HBSS buffer (137.93 mM NaCl, 5.33 mM KCl, 2 mM CaCl2, 1 mM MgSO4, 2.38 mM HEPES, 5.5 mM glucose, pH to 7.4). […] Baseline fluorescence was measured before treatment, and fluorescence was read every 20 seconds for 700 seconds using an excitation wavelength of 494 nm, an emission wavelength of 516 nm in a FlexStation 3 microplate reader (Molecular Devices). Fluorescence values were reported as F/Fo according to the calculation: [ΔF=(494 nm)f/(516 nm)f−(494 nm)0/(516 nm)0]. […]
as §1, with “s” for “seconds”, “Devices).” for “Devices). Fluorescence values were reported as F/Fo according to the calculation: [ΔF=(494 nm)f/(516 nm)f−(494 nm)0/(516 nm)0].”

[4] = tested on: gemcitabine-induced neutrophil extravasation; test: Gemcitabine-induced neutropenia mice model; type: in vivo
Experimental: Male BALB/c mice were randomly divided into 3 groups; normal control group (n=5), gemcitabine only group (n=5) and gemcitabine with PLAG group (n=5). The mice were intraperitoneally (i.p.) injected with 50 mg/kg gemcitabine to induce neutropenia. PLAG was diluted with phosphate-buffered saline (PBS) and then orally administrated at a dose of 50 or 250 mg/kg/day. The normal control group was administered PBS only during the experiment. The whole blood was collected from the orbital sinuses using capillary tubes (Kimble Chase Life Science and Research Products LLC, FL, USA) and collection tubes containing K3E-K3EDTA (Greiner Bio-One International, Germany). To obtain peritoneal cells, 5 ml of cold PBS was injected to the left side of the peritoneal wall using a 5 mL syringe, and the fluid was aspirated from the peritoneum. The collected cells were counted by complete blood count (CBC) analysis using Mindray BC-5300 auto-hematology analyzer (Shenzhen Mindray Biomedical Electronics, China). To establish a 4T1 tumor-bearing mice model, the murine 4T1 mammary carcinoma cells (1×10^5) were subcutaneously injected on the right side of the abdomen. On the 10th day after tumor injection, the mice were intraperitoneally (i.p.) injected with 50 mg/kg gemcitabine, and the next day the whole blood was collected from the orbital sinuses as mentioned above before sacrificing the animals to obtain different organs of the body for RT-PCR.
PLAG inhibits gemcitabine-induced neutrophil extravasation into the peritoneum by down-regulating the expression of adhesion molecules in normal BALB/c mice. Male BALB/c mice of 8-10 weeks of age were orally administrated with 50 or 250 mg/kg of PLAG and then were intraperitoneally injected with 50 mg/kg gemcitabine. After 24 h, blood samples were collected by retro-orbital bleeding, and the number of blood neutrophils was determined by CBC analysis. Each group contains five mice. The population of blood neutrophils was analyzed by flow cytometry. Red cell-lysed whole blood was stained with FITC-conjugated anti-Ly6G and PE-Cy7-conjugated anti-CD11b antibodies to determine the circulating neutrophil population. Ly6G+/CD11b+ cells were further stained with APC-conjugated anti-L-selectin and APC-conjugated anti-LFA-1 antibodies and were analyzed by flow cytometry to determine the expression of adhesion molecules.
The mice were intraperitoneally (i.p.) injected with 50 mg/kg gemcitabine to induce neutropenia. PLAG was diluted with phosphate-buffered saline (PBS) and then orally administrated at a dose of 50 or 250 mg/kg/day. The normal control group was administered PBS only during the experiment. At 15 h after gemcitabine treatment, the whole blood was collected from the orbital sinuses using capillary tubes (Kimble Chase Life Science and Research Products LLC, FL, USA) and collection tubes containing K3E-K3EDTA (Greiner Bio-One International, Kremsmünster, Austria). To obtain peritoneal cells, 5 ml of cold PBS was injected to the left side of the peritoneal wall using a 5 mL syringe, and the fluid was aspirated from the peritoneum. The collected cells were counted by complete blood count (CBC) analysis using Mindray BC-5300 auto-hematology analyzer (Shenzhen Mindray Biomedical Electronics, Guangdong Sheng, China).
To establish a 4T1 tumor-bearing mice model, the murine 4T1 mammary carcinoma cells (1×105) were subcutaneously injected on the right side of the abdomen. On the 10th day after tumor injection, the mice were intraperitoneally (i.p.) injected with 50 mg/kg gemcitabine, and the next day the whole blood was collected from the orbital sinuses as mentioned above before sacrificing the animals to obtain different organs of the body.

[5] = tested on: citrullinated histone H3 in dHL-60 cells; test: Histone H3 citrullination, western blot; type: cell-based, human; conditions: time-dependent
Experimental: dHL-60 cells were lysed on ice for 30 minutes in RIPA buffer composed of 50 mM Tris-HCl (pH 7.4), 150 mM NaCl, 2 mM EDTA, 1% NP-40, 0.5% sodium deoxycholate, 0.1% SDS, 1 mM phenylmethylsulfonyl fluoride (PMSF), 10 mM sodium fluoride, 2 mM sodium pyrophosphate, 10 mM β-glycerophosphate, 10 mM sodium orthovanadate. The lysates were centrifuged at 13,000 rpm for 20 minutes at 4° C. and protein concentrations were determined using the Bradford assay (Bio-Rad Laboratories). Denatured samples were mixed with a 5×SDS-PAGE loading buffer and heated to 100° C. for 15 min. The samples were separated on the 10% of SDS-PAGE gel and transferred to polyvinylidene difluoride (PVDF) membranes (Merck Millipore Corporation, MA, USA). Membranes were blocked with 5% non-fat milk in PBS (10 mM Tris-HCl, pH7.5, 150 mM NaCl) for 1 h and probed with primary antibodies against histone H3 (citrulline R2+R8+R17) from abcam (USA) and β-actin from cell signaling (USA) for overnight at 4° C. The blots were washed and incubated with appropriate secondary antibodies and visualized using Pierce™ ECL Western Blotting Substrate (Thermo Scientific).

[6] = normal BALB/c mice, 15 hours after gemcitabine 50 mg/kg i.p.

## c1ccc2c(c1)[I+]c1ccccc1-2 [DPI, diphenyleneiodonium, reference compound]
[1]
  gemcitabine-induced phosphorylation of ERK, p38 MAPK and JNK: dose-dependently decreased

## CCCCCC=CCC=CCCCCCCCC(=O)OC(CO)CO [HLH, hydroxyl linoleic hydroxyl glycerol, reference compound]
[2]
  number of neutrophils in BALF: no effect

## CCCCC/C=C\C/C=C\CCCCCCCC(=O)O [LA, linoleic acid, reference compound]
[2]
  number of neutrophils in BALF: no effect

## CCCCCCCCCCCCCCCC(=O)O [PA, palmitic acid, reference compound]
[2]
  number of neutrophils in BALF: no effect

## COc1ccc2c(c1)CC[C@@H]1[C@@H]2CC[C@]2(C)[C@@H](NCCCCCCN3C(=O)C=CC3=O)CC[C@@H]12 [U73122, reference compound]
[3]; PLC inhibitor, dose-dependent
  PLAG-induced intracellular calcium increase: inhibited

## Nc1ccn([C@@H]2O[C@H](CO)[C@@H](O)C2(F)F)c(=O)n1 [gemcitabine, reference compound]
[4]; 4T1 tumor-bearing mice, gemcitabine 50 mg/kg i.p.
  mRNA expression of MIP-2 in tissues: increases
[4]; 4T1 tumor-bearing mice, one day after gemcitabine 50 mg/kg i.p.
  migration of circulating neutrophils into the peritoneal cavity: induced the migration
[4]; [6]
  circulating neutrophils: significant reduction
  neutrophils in the peritoneal cavity: increase

## C[C@H](CCC(=O)O)C[C@H](C)C[C@H](C)C(=O)/C=C(\O)[C@H](C)C[C@H](C)C/C=C/[C@@H](C)[C@@H](O)[C@@H](C)[C@@H](O)C[C@@H]1CC[C@@](C)([C@H]2CC[C@@](C)([C@@H](C)O)O2)O1 [ionomycin, reference compound]
[3]; PLAG 100 μg/mL, ionomycin 5 μM
  cytosolic calcium of dHL-60 cells: increased
[5]
  histone H3 citrullination: induced
